Three compounds from US12564575B2 (priority 2019, dated 2026) can be followed below.

“Also recorded” adds a separate entry of the source. Where only a bound is given, the exact number is not on record here.

One experiment concerns Streptococcus suis. Kind of experiment: Juvenile pig with Streptococcus suis infection during experimental envenoming study. Format: in vivo, Sus domesticus. The settings on record: S. suis infected juvenile pig; LY315920 plus single non-curative antibiotic dose; euthanized as scheduled.
Experiment [1] has as its system vero epithelial cells (CCL-81). Kind of experiment: ECIS study of vero epithelial cells exposed to snake venom. Format: cell-based, African green monkey. The settings on record: for cellular function and cell-cell junction integrity measured by resistance: C. scutulatus whole venom (high sPLA2 content).
Experiment [2] deals with venom MP (Sistrurus venom metalloprotease activity). Format: biochemical, Viper, elapid and colubrid venom. The settings on record: FIG. 4, Table 2; comparison of hydroxamate metalloprotease inhibitors.
Experiment [3] relates to LPS/OA-induced lung injury and ARDS. Format: in vivo, C57BL/6 mice.
The next experiment relates to LPS/OA induced ARDS. Set-up: species or system C57BL/6 mice. The settings on record: mouse, in vivo, po, 10 mg/kg.

In the case of `CCc1c(C(=O)C(N)=O)c2c(OCC(=O)O)cccc2n1Cc1ccccc1` [varespladib], in the experiment on Streptococcus suis, the survival is > 100 h. Also, the “difference in response between the two varespladib doses” value in experiment [1] (0.05 mg/ml versus 0.01 mg/mL) is reported as “no significant difference”. Further, the “inter-cellular attachments (resistance) and cell viability (capacitance)” value in experiment [1] (C. scutulatus and Daboia russelli (Pakistan) venoms, varespladib 0.05 mg/ml and 0.01 mg/mL) is “recovers and stabilizes inter-cellular attachments (resistance) and cell viability (capacitance)”. In addition, in experiment [1], the “cellular function and cell-cell junction integrity measured by resistance” value was “preserves cellular function and cell-cell junction integrity”.

`CNC(=O)[C@@H](NC(=O)[C@H](CC(C)C)[C@H](O)C(=O)NO)C(C)(C)C` [marimastat]: the “potency (IC50) against venom metalloprotease activity, in words” value in experiment [2] is on record as “good to excellent performance”.

For the compound `C[C@H](Cc1cccc(-c2cc(Cc3ccccc3)ccc2C(N)=O)c1)C(=O)O` [AZD2716, (R)-3-(5′-benzyl-2′-carbamoyl-[1,1′-biphenyl]-3-yl)-2-methylpropanoic acid], the “clinical appearance of treated animals” value in experiment [3] ([…], 24 and 48 hours, versus lethargic, tachypneic controls) is “bright, alert and responsive”. Moreover, the “lung sound amplitude, distance from maximum (audiogram)” value in experiment [3] ([…], recordings at 24 hours, control −29.7 db) is −38.5 db. Besides, the “difference in lung sound amplitude between treated and untreated mice” value in experiment [3] ([…], treated quieter) was ~10 dB. Besides, the “alveolar damage (ATS workshop lung injury score)” value in experiment [3] (mouse, in vivo) was “prevented and rescued; also recorded: protects and reduces alveolar damage”. For the same compound, the “damage from LPS/OA induced ARDS (histopathology)” value in the experiment with LPS/OA induced ARDS was “rescue and reduce damage”. In addition, the “cellular function and cell-cell junction integrity measured by resistance” value in experiment [1] is “preserves cellular function and cell-cell junction integrity”.
